Series [1] is described as follows: physchem. Particulars: octan-1-ol/water, pH 7.4, LogD7.4.
A short description of series [2]: in vitro. As to conditions: human, plasma, PPB.
Series [3] is described as follows: in vitro. Particulars: SD, HW or BN, rat, plasma.
Series [4] is described as follows: in vitro. Particulars: Dunkin Hartley, guinea pig, plasma.
The nature of series [5]: in vitro. Particulars: human.
The nature of series [6]: in vitro. Particulars: hepatocytes.
A short description of series [7]: physchem. As to conditions: pH 7.4 buffer.
Series [8] can be described thus: in vitro. Particulars: human, hepatocytes.
A short description of series [9]: physchem.

Converted amounts (≈) assume the structure as drawn. A value given as a limit tells only on which side of the number the result lay.

For orientation: logD means the decadic logarithm of the distribution of all forms, ionised or not, between an organic phase and buffer at a given pH. High values mean higher lipophilicity, low ones lower lipophilicity. The fraction unbound is free concentration divided by total concentration. One may read the microsomal CLint as the capacity of the preparation to metabolise the compound, expressed as a volume cleared per time. Read a low microsomal CLint as greater metabolic stability. For orientation: hepatocyte CLint means a measure of how fast metabolising enzymes remove a compound, apart from limits set by blood flow. A word on the thermodynamic solubility: it is the concentration in solution at equilibrium with solid. A word on the pKa: it is the pH at which an ionisable group is half protonated. The low end stands for a stronger acid or weaker base, the high end for a weaker acid or stronger base.

Take `O=c1[nH]c2c(O)ccc(CCNCCS(=O)(=O)CCCOCCc3ccccc3)c2s1` [SIBENADET]: the logD in “physchem [1]” is 2.61. Further, the fraction unbound at 5 h is 0.0556 in the series “in vitro [2]”, 0.0784 in the series “in vitro [3]” and 0.101 in “in vitro [4]”. Moreover, the microsomal CLint in the series “in vitro [5]” (microsomes) turned out to be 111 µL/min/mg. Also, in “in vitro [6]”, the hepatocyte CLint came to 91 µL/min/1e6 cells.
With `COc1cccc2c1c(NS(=O)(=O)c1ccc(Cl)s1)nn2Cc1cccc(CNC(=O)C(C)(C)O)c1`, the logD in the series “physchem [1]” was determined as 2.09. In the series “physchem [7]”, the thermodynamic solubility was determined as 81.3 µM (≈ 44.6 µg/mL). Besides, the results for the fraction unbound at 5 h in “in vitro [2]”, in “in vitro [3]” and in “in vitro [4]” were 0.0133, 0.0082 and 0.035, respectively. The microsomal CLint in “in vitro [5]” (liver microsomes) was 50 µL/min/mg. The hepatocyte CLint in “in vitro [6]” was found to be 25 µL/min/1e6 cells; in “in vitro [8]”, 40 µL/min/1e6 cells.
With `C[C@H](Cc1cccc(CC(=O)NC23CC4CC(CC(C4)C2)C3)c1)NC[C@H](O)c1ccc(O)c(CO)c1`, the logD in “physchem [1]” was determined as 2.4. The fraction unbound at 5 h in “in vitro [3]” is 0.134; in “in vitro [4]”, 0.208. Further, the microsomal CLint in “in vitro [5]” (liver microsomes) was determined as 129 µL/min/mg. For the same molecule, the intrinsic clearance (hepatocyte CLint) turned out to be 43 µL/min/1e6 cells in “in vitro [6]” and 21.9 µL/min/1e6 cells in “in vitro [8]”.
`Cc1nccn1CC1CCc2c(c3ccccc3n2C)C1=O` (configuration not stated) [ONDANSETRON]: the pKa in the series “physchem [9]” turned out to be 7.73. Besides, in “physchem [1]”, the logD was determined as 1.67. For the same molecule, the fraction unbound at 5 h in “in vitro [4]” is 0.635. The molecule further registered a microsomal CLint in “in vitro [5]” (liver microsomes) of 6.46 µL/min/mg. In “in vitro [8]”, this molecule showed a hepatocyte CLint of less than 3 µL/min/1e6 cells.
`O=c1[nH]c2c(O)ccc([C@@H](O)CNCCc3cccc(CNCCc4ccccc4F)c3)c2s1` showed a logD in the series “physchem [1]” of 1.06. Moreover, the fraction unbound at 5 h in the series “in vitro [3]” was 0.134; in “in vitro [4]”, 0.107. For the same molecule, in the series “in vitro [5]” (liver microsomes), the microsomal CLint came out at 17 µL/min/mg. The hepatocyte CLint in the series “in vitro [6]” is 22 µL/min/1e6 cells; in the series “in vitro [8]” it was less than 3 µL/min/1e6 cells.
Regarding `Cc1nn(C2CCCCC2)c(N)c1-c1ccccc1`, the fraction unbound at 5 h is 0.0447 in “in vitro [2]”, 0.101 in the series “in vitro [3]” and 0.105 in the series “in vitro [4]”. In the series “in vitro [8]”, this molecule returned a hepatocyte CLint of 13.8 µL/min/1e6 cells.
On to `CN(C)c1nc(Cc2ccc(NC(=O)c3ccc(C(F)(F)F)cc3)cc2)nc(N(C)C)c1CC(=O)O` [BI-671800], for which the logD in the series “physchem [1]” turned out to be 1.46. Also, the thermodynamic solubility in the series “physchem [7]” stood at 28.8 µM (≈ 14.4 µg/mL). For the same molecule, the values for the fraction unbound at 5 h in the series “in vitro [2]”, in the series “in vitro [3]” and in “in vitro [4]” were 0.0039, 0.0025 and 0.0437, respectively. This molecule also gave a microsomal CLint in “in vitro [5]” (liver microsomes) of less than 3 µL/min/mg. The intrinsic metabolic clearance (hepatocyte CLint) was 18.6 µL/min/1e6 cells in “in vitro [6]” and 4.47 µL/min/1e6 cells in “in vitro [8]”.
The molecule `O=C1COc2c(CCNCCN(C(=O)CCNCCc3ccc(Cl)c(Cl)c3)C3CCCCC3)ccc(O)c2N1` returned a logD in “physchem [1]” of 2.23. Moreover, the fraction unbound at 5 h is 0.0313 in “in vitro [2]”, 0.0801 in the series “in vitro [3]” and 0.173 in the series “in vitro [4]”. In addition, the microsomal CLint in the series “in vitro [5]” (microsomes) is 38 µL/min/mg. Moreover, the hepatocyte CLint in “in vitro [6]” was determined as 22 µL/min/1e6 cells.
The molecule `O=c1[nH]c2c(O)ccc([C@@H](O)CNCCCSCCOCCc3cccc4ccccc34)c2s1` returned a logD in “physchem [1]” of 3.12. Also, the fraction unbound at 5 h is 0.0067 in “in vitro [2]”, 0.0082 in “in vitro [3]” and 0.0088 in “in vitro [4]”. The molecule also registered a microsomal CLint in “in vitro [5]” (liver microsomes) of 70 µL/min/mg. For the same molecule, the figures for the hepatocyte CLint in the series “in vitro [6]” and in the series “in vitro [8]” were 85 µL/min/1e6 cells and 14.8 µL/min/1e6 cells, respectively.
As for `O=CNc1cc([C@@H](O)CNCCc2ccc(NC[C@H](O)c3ccccc3)cc2)ccc1O` [MILVETEROL], the logD in the series “physchem [1]” came out at 0.02. The fraction unbound at 5 h in “in vitro [2]” was 0.285; in “in vitro [4]”, 0.194. This molecule registered a hepatocyte CLint in “in vitro [8]” of less than 3 µL/min/1e6 cells.
Molecule `CCCCN(CCNCCc1ccc(O)c2[nH]c(=O)sc12)C(=O)CCOCCc1ccccc1` displayed a logD in “physchem [1]” of 3. For the same molecule, the fraction unbound at 5 h in “in vitro [2]” was 0.0532; in “in vitro [3]”, 0.0705; in “in vitro [4]”, 0.17. This molecule had a microsomal CLint in the series “in vitro [5]” (liver microsomes) of 141 µL/min/mg. Further, the hepatocyte CLint in “in vitro [6]” is greater than 150 µL/min/1e6 cells; in the series “in vitro [8]”, 25.9 µL/min/1e6 cells.

For the origin of these results see ChEMBL document CHEMBL3301361, “Experimental in vitro DMPK and physicochemical data on a set of publicly disclosed compounds”.
